Data taken from the supplement of paper PMC10307832.

Experiments:
Assay in all cases: relative viability (nuclei count vs DMSO), 5 days (fraction); higher = more cells survive
QS11 + AZD7762 = compound: C1CC2=C(C1)C=C(C=C2)OC3=NC(=C4C(=N3)N(C=N4)CC5=CC=C(C=C5)C6=CC=CC=C6)N[C@@H](CC7=CC=CC=C7)CO [QS11] + NC(=O)Nc1cc(-c2cccc(F)c2)sc1C(=O)N[C@H]1CCCNC1 [AZD7762] (partner 0.2 µM)
In short: (§1)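 Cells from lung cancer lines were seeded into 1536-well plates and, one day later, dosed by pin tool. Treatments were either a single drug or a fixed dose of an anchor drug with five library-drug doses (not always all listed) in √10 steps. After 5 days, nuclei were stained in a one-step fixation (final 0.05% Triton X-100, 1% formaldehyde, 1 ug/ml Hoechst) and counted on 4× images, and relative viability is the treated-to-vehicle nuclei ratio, as the median of duplicate plates.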

QS11 + Decitabine = compound: C1CC2=C(C1)C=C(C=C2)OC3=NC(=C4C(=N3)N(C=N4)CC5=CC=C(C=C5)C6=CC=CC=C6)N[C@@H](CC7=CC=CC=C7)CO [QS11] + Nc1ncn([C@H]2C[C@H](O)[C@@H](CO)O2)c(=O)n1 [Decitabine] (partner 2 µM)
In short: as §1

Darinaparsin + Lapatinib = compound: C[As](C)SC[C@H](NC(=O)CC[C@H](N)C(=O)O)C(=O)NCC(=O)O [Darinaparsin] + CS(=O)(=O)CCNCc1ccc(-c2ccc3ncnc(Nc4ccc(OCc5cccc(F)c5)c(Cl)c4)c3c2)o1 [Lapatinib] (partner 2 µM)
In short: as §1

AZ628 + Palbociclib = compound: CC1=C(C=C(C=C1)NC(=O)C2=CC(=CC=C2)C(C)(C)C#N)NC3=CC4=C(C=C3)N=CN(C4=O)C [AZ628] + CC(=O)c1c(C)c2cnc(Nc3ccc(N4CCNCC4)cn3)nc2n(C2CCCC2)c1=O [Palbociclib] (partner 0.5 µM)
In short: as §1

AZ628 + Pemetrexed = compound: CC1=C(C=C(C=C1)NC(=O)C2=CC(=CC=C2)C(C)(C)C#N)NC3=CC4=C(C=C3)N=CN(C4=O)C [AZ628] + Nc1nc2[nH]cc(CCc3ccc(C(=O)N[C@@H](CCC(=O)O)C(=O)O)cc3)c2c(=O)[nH]1 [Pemetrexed] (partner 0.2 µM)
In short: as §1

LCLC-97TM1
relative viability (QS11 + AZD7762; first compound 0.253 µM): 0.192 | relative viability (QS11 + AZD7762; first compound 2.53 µM): 0.27 | relative viability (QS11 + AZD7762; first compound 8 µM): 0.418 | relative viability (QS11 + Decitabine; first compound 0.253 µM): 0.213 | relative viability (QS11 + Decitabine; first compound 2.53 µM): 0.257 | relative viability (QS11 + Decitabine; first compound 8 µM): 0.219 | relative viability (Darinaparsin + Lapatinib; first compound 0.08 µM): 0.782 | relative viability (Darinaparsin + Lapatinib; first compound 0.8 µM): 0.579 | relative viability (Darinaparsin + Lapatinib; first compound 2.53 µM): 0.803 | relative viability (Darinaparsin + Lapatinib; first compound 8 µM): 0.867 | relative viability (AZ628 + Palbociclib; first compound 0.08 µM): 0.231 | relative viability (AZ628 + Palbociclib; first compound 0.253 µM): 0.217 | relative viability (AZ628 + Palbociclib; first compound 0.8 µM): 0.193 | relative viability (AZ628 + Palbociclib; first compound 2.53 µM): 0.182 | relative viability (AZ628 + Palbociclib; first compound 8 µM): 0.113 | relative viability (AZ628 + Pemetrexed; first compound 0.08 µM): 0.246 | relative viability (AZ628 + Pemetrexed; first compound 0.253 µM): 0.255 | relative viability (AZ628 + Pemetrexed; first compound 0.8 µM): 0.238 | relative viability (AZ628 + Pemetrexed; first compound 2.53 µM): 0.229 | relative viability (AZ628 + Pemetrexed; first compound 8 µM): 0.121
